Converted amounts (≈) assume the structure as drawn. Read-outs that look alike come from different tables or passages of the source. Positions of bridges follow the written chain, without caps; N, C: chain ends. Non-standard residues stand in square brackets, D forms with d. Residues, ends and D or L forms follow the SMILES beside them. Lys(N3) = [N-]=[N+]=NCCCC[C@H](N)C(=O)O; R8 = C=CCCCCCC[C@@](C)(N)C(=O)O; Cba = N[C@@H](CC1CCC1)C(=O)O; S5 = C=CCCC[C@](C)(N)C(=O)O; βAla = NCCC(=O)O
Key:
EPSA = type: physicochemical
[1] = Experimental LogD (partition coefficient); conditions: for logD: not stated, Partition Coeff LogD
[2] = Solubility assay (kinetic solubility, PBS pH 7); type: physicochemical; conditions: pH 7, PBS; for solubility kinetic: pH 7, aqueous buffer, kinetic from dmso stock, read-out: Solubility
Method in brief: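 Next, measure peak areas of sample and standard. Finally, multiply their ratio by the standard concentration to obtain solubility (µM).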

[3] = Nanoclick permeability assay
Method in brief: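 Azido-peptide permeability was read as loss of NanoBRET signal (donor 450 nm, acceptor 610 nm) after adding NanoBret618-azide at 10 μM final.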

HCT116 cells = assay: Lactate dehydrogenase (LDH) release assay; type: cell-based
Method in brief: (§1)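 HCT116 cells stably carrying a p53-responsive β-lactamase reporter, seeded at 8000 cells/well, exposed to compound with 0.5% final DMSO. LDH release read with the CytoTox-ONE membrane integrity kit. Values are geometric means of at least three biological replicates.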

[4] = Lactate dehydrogenase (LDH) release assay; type: cell-based
Method in brief: as §1

[5] = 0% FBS 4Hr, read-out: LDH: Cytotoxicity assay: EC50
[6] = 10% FBS 16Hr, read-out: LDH: Cytotoxicity assay: EC50
[7] = Nanoclick permeability assay EC50

Row | Compound | EPSA (EPSA; EPSA) [A^2] | logD [1] | solubility kinetic [2] [µM] | cell entry EC50 [3] [nM] | LDH: Cytotoxicity assay: % Effect (HCT116 cells; 0% FBS 4Hr) [%] | LDH: Cytotoxicity assay: % Effect (HCT116 cells; 10% FBS 16Hr) [%] | EC50 [4, 5] [nM] | EC50 [4, 6] [nM] | Partition Coeff LogD [1] | Solubility [2] | cell entry EC50 [3, 7] [nM] | LDH: Cytotoxicity assay: % Effect (HCT116 cells) [%] | EC50 ([4]; LDH: Cytotoxicity assay: EC50) [nM] | EPSA (EPSA)
1 | CC(=O)N[C@@H](CCCCN=[N+]=[N-])C(=O)NCCC(=O)N[C@@H](CC(C)C)C(=O)N[C@H](C(=O)N[C@@H](Cc1ccccc1)C(=O)N[C@]1(C)CCCCCCC=CCCC[C@@](C)(C(=O)N[C@@H](CCC(=O)O)C(=O)N[C@@H](CCC(=O)O)C(=O)N[C@@H](C)C(=O)N[C@@H](C)C(=O)N[C@@H](C)C(=O)N[C@@H](C)C(N)=O)NC(=O)[C@H](CC2CCC2)NC(=O)[C@H](CCC(N)=O)NC(=O)[C@H](CCC(=O)O)NC(=O)[C@H](Cc2c[nH]c3ccccc23)NC(=O)[C@H](Cc2ccc(O)cc2)NC(=O)[C@H](CCC(=O)O)NC1=O)[C@@H](C)O [MP-3685, AZIDE-ATSP-7041 (A8E, EEAAAA TAIL)] (Ac-[Lys(N3)][βAla]LTF[R8]EYWEQ[Cba][S5]EEAAAA-NH2; staple 6-13) | 195 | 1.99 | 150 (≈ 351 µg/mL) | 1260 | 10 | -3.573 | > 50700 | > 50700 |  |  |  |  |  | 
2 | CC(=O)N[C@@H](CCCCN=[N+]=[N-])C(=O)N[C@H](C(=O)N[C@@H](Cc1ccccc1)C(=O)N[C@]1(C)CCCCCCC=CCCC[C@@](C)(C(=O)N[C@@H](C)C(=O)N[C@@H](C)C(=O)N[C@@H](C)C(=O)N[C@@H](C)C(=O)N[C@@H](C)C(=O)N[C@H](C)C(N)=O)NC(=O)[C@H](CC2CCC2)NC(=O)[C@H](CCC(N)=O)NC(=O)[C@H](C)NC(=O)[C@H](Cc2c[nH]c3ccccc23)NC(=O)[C@H](Cc2ccc(O)cc2)NC(=O)[C@H](CCC(=O)O)NC1=O)[C@@H](C)O [MP-062] (Ac-[Lys(N3)]TF[R8]EYWAQ[Cba][S5]AAAAA[dA]-NH2; staple 4-11) | 201 |  |  | 2080 | 5.433 | 10.66 | > 50700 | > 50700 | Poorly Behaved | Poorly Behaved |  |  |  | 
3 | CC(=O)N[C@@H](CCCCN=[N+]=[N-])C(=O)NCCC(=O)N[C@@H](CC(C)C)C(=O)N[C@@H](CC1CCC1)C(=O)N[C@@H](Cc1ccc(O)cc1)C(=O)N[C@]1(C)CCCCCCC=CCCC[C@@](C)(C(=O)N[C@@H](C)C(=O)N[C@@H](C)C(=O)N[C@@H](C)C(N)=O)NC(=O)[C@H](Cc2ccccc2)NC(=O)[C@H](Cc2c[nH]c3ccccc23)NC(=O)[C@H](CCC(=O)O)NC(=O)[C@H]([C@@H](C)O)NC(=O)[C@H](CCC(N)=O)NC(=O)[C@H](CO)NC1=O [MP-4204] (Ac-[Lys(N3)][βAla]L[Cba]Y[R8]SQTEWF[S5]AAA-NH2; staple 6-13) | 191 |  |  |  |  |  |  |  | Poorly Behaved | Poorly Behaved | 669 | 16.98 | > 50700 | 
4 | CC(=O)N[C@@H](CCCCN=[N+]=[N-])C(=O)NCCC(=O)N[C@H](C(=O)N[C@@H](CO)C(=O)N[C@@H](Cc1ccccc1)C(=O)N[C@]1(C)CCCCCCC=CCCC[C@@](C)(C(=O)N[C@@H](CO)C(=O)N[C@@H](C)C(=O)N[C@@H](C)C(N)=O)NC(=O)[C@H](CC(C)C)NC(=O)[C@H](CC(C)C)NC(=O)[C@H](C)NC(=O)[C@H](Cc2c[nH]c3ccccc23)NC(=O)[C@H](Cc2ccc(O)cc2)NC(=O)[C@H](CCC(=O)O)NC1=O)[C@@H](C)O [MP-686] | 193 | 2.7 | 2 (≈ 3.83 µg/mL) |  |  |  |  |  |  |  | 38.5 |  | > 50700 | 
5 | CC(=O)N[C@@H](CCCCN=[N+]=[N-])C(=O)N[C@@H](CCCCN)C(=O)N[C@@H](CC(C)C)C(=O)N[C@H](C(=O)N[C@@H](Cc1ccccc1)C(=O)N[C@]1(C)CCCCCCC=CCCC[C@@](C)(C(=O)N[C@@H](CO)C(=O)N[C@@H](C)C(=O)N[C@@H](C)C(N)=O)NC(=O)[C@H](CC2CCC2)NC(=O)[C@H](CCC(N)=O)NC(=O)[C@H](C)NC(=O)[C@H](Cc2c[nH]c3ccccc23)NC(=O)[C@H](Cc2ccc(O)cc2)NC(=O)[C@H](CCC(=O)O)NC1=O)[C@@H](C)O [MP-025] | 205 | 2.83 | 3 (≈ 6.08 µg/mL) |  |  |  |  |  |  |  | 1170 | 3.386 | > 50000 | 
6 | CC(=O)N[C@@H](CS)C(=O)N[C@@H](CCCCN=[N+]=[N-])C(=O)NCCC(=O)N[C@@H](C)C(=O)N[C@H](C(=O)N[C@@H](Cc1ccccc1)C(=O)N[C@]1(C)CCCCCCC=CCCC[C@@](C)(C(=O)N[C@@H](C)C(=O)N[C@@H](C)C(=O)N[C@@H](C)C(N)=O)NC(=O)[C@H](CC2CCC2)NC(=O)[C@H](C)NC(=O)[C@H](C)NC(=O)[C@H](Cc2c[nH]c3ccccc23)NC(=O)[C@H](Cc2ccc(O)cc2)NC(=O)[C@H](C)NC1=O)[C@@H](C)O [MP-987] (Ac-C[Lys(N3)][βAla]ATF[R8]AYWAA[Cba][S5]AAA-NH2; staple 7-14) | 180 | 1.12 | 12 (≈ 22.8 µg/mL) |  |  |  |  |  |  |  | 217 |  | > 50000 | 
7 | CC(=O)N[C@@H](CCCCN=[N+]=[N-])C(=O)NCCC(=O)N[C@@H](CC(C)C)C(=O)N[C@H](C(=O)N[C@@H](Cc1ccccc1)C(=O)N[C@]1(C)CCCCCCC=CCCC[C@@](C)(C(=O)N[C@@H](CO)C(=O)N[C@@H](C)C(=O)N[C@@H](C)C(N)=O)NC(=O)[C@H](CCC(N)=O)NC(=O)[C@H](Cc2ccc(O)cc2)NC(=O)[C@H](Cc2c[nH]c3ccccc23)NC(=O)[C@H](CC2CCC2)NC(=O)[C@H](CCC(=O)O)NC(=O)[C@H](C)NC1=O)[C@@H](C)O [MP-205] (Ac-[Lys(N3)][βAla]LTF[R8]AE[Cba]WYQ[S5]SAA-NH2; staple 6-13) | 198 | 3.02 | 16 (≈ 31.5 µg/mL) |  |  |  |  |  |  |  | 276 | -2.394 | > 50700 | 
8 | CC(=O)N[C@@H](CCCCN=[N+]=[N-])C(=O)NCCC(=O)N[C@@H](CC(C)C)C(=O)N[C@H](C(=O)N[C@@H](Cc1ccccc1)C(=O)N[C@]1(C)CCCCC#CC#CCCC[C@@](C)(C(=O)N[C@@H](CO)C(=O)N[C@@H](C)C(=O)N[C@@H](C)C(N)=O)NC(=O)[C@H](CC2CCC2)NC(=O)[C@H](CCC(N)=O)NC(=O)[C@H](C)NC(=O)[C@H](Cc2c[nH]c3ccccc23)NC(=O)[C@H](Cc2ccc(O)cc2)NC(=O)[C@H](CCC(=O)O)NC1=O)[C@@H](C)O [MP-806] | 203 | 2.44 | 34 (≈ 66.8 µg/mL) |  |  |  |  |  |  |  | 5580 |  | > 50700 | 
9 | CC(=O)N[C@@H](CCCCN=[N+]=[N-])C(=O)N[C@@H](CCCCN)C(=O)N[C@@H](CCCCN)C(=O)N[C@@H](CC(C)C)C(=O)N[C@H](C(=O)N[C@@H](Cc1ccccc1)C(=O)N[C@]1(C)CCCCCCC=CCCC[C@@](C)(C(=O)N[C@@H](CO)C(=O)N[C@@H](C)C(=O)N[C@@H](C)C(N)=O)NC(=O)[C@H](CC2CCC2)NC(=O)[C@H](CCC(N)=O)NC(=O)[C@H](C)NC(=O)[C@H](Cc2c[nH]c3ccccc23)NC(=O)[C@H](Cc2ccc(O)cc2)NC(=O)[C@H](CCC(=O)O)NC1=O)[C@@H](C)O [MP-026] | 213 |  | 3 (≈ 6.47 µg/mL) |  |  |  |  |  | Poorly Behaved |  | 1030 | 25.62 | > 50000 | 
10 | CC(=O)N[C@@H](CCC(=O)O)C(=O)N[C@@H](CCCCN=[N+]=[N-])C(=O)NCCCCCC(=O)N[C@H](C(=O)N[C@@H](CO)C(=O)N[C@@H](Cc1ccccc1)C(=O)N[C@]1(C)CCCCCCC=CCCC[C@@](C)(C(N)=O)NC(=O)[C@H](CC(C)C)NC(=O)[C@H](CC(C)C)NC(=O)[C@H](C)NC(=O)[C@H](Cc2c[nH]c3ccccc23)NC(=O)[C@H](Cc2ccc(O)cc2)NC(=O)[C@H](CCC(=O)O)NC1=O)[C@@H](C)O [MP-027] |  |  |  |  |  |  |  |  | Poorly Behaved | Poorly Behaved | 415 | 2.385 | > 50000 | Poorly Behaved
11 | CC(=O)N[C@@H](CCCCN=[N+]=[N-])C(=O)NCCC(=O)N[C@@H](CC(C)C)C(=O)N[C@H](C(=O)N[C@@H](Cc1ccccc1)C(=O)N[C@]1(C)CCCCCCC=CCCC[C@@](C)(C(=O)N[C@@H](CO)C(=O)N[C@@H](C)C(=O)N[C@@H](C)C(N)=O)NC(=O)[C@H](CC2CCC2)NC(=O)[C@H](C)NC(=O)[C@H](CCC(N)=O)NC(=O)[C@H](Cc2c[nH]c3ccccc23)NC(=O)[C@H](Cc2ccc(O)cc2)NC(=O)[C@H](CCC(=O)O)NC1=O)[C@@H](C)O [MP-4203] (Ac-[Lys(N3)][βAla]LTF[R8]EYWQA[Cba][S5]SAA-NH2; staple 6-13) | 190 | 2.71 | 179 (≈ 353 µg/mL) |  |  |  |  |  |  |  | 1200 | 15.26 | > 50700 | 

From publication PMC10786919, “Design-rules for stapled peptides with in vivo activity and their application to Mdm2/X antagonists” (Nature Communications, 2024)
